molecular target: KRAS G12C and cRAF (Ras-binding domain) interaction (Homo sapiens (Human), UniProt P01116, C118S/C51S/C80L/G12C); assay: Inhibition of KRAS G12C and cRAF binding (AlphaScreen); conditions: GMPPNP-loaded KRAS G12C, 19-20 hours incubation with compound; read-out: IC50 (Inhibition of KRAS G12C and cRAF Binding)
Summary of the method: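 Compounds (DMSO) preincubated 19-20 h at room temperature, then RBD with streptavidin donor and glutathione acceptor beads added in 25 mM Hepes pH 7.4, 150 mM NaCl, 5 mM MgCl2, 0.01% Triton X-100, 2% DMSO for 60-90 min. Emission 570 nm (excitation 680 nm); IC50 by 4-parameter fit. Counter-screen used biotin-AviTag-GST instead of RBD.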

KRAS G12C and cRAF (Ras-binding domain) interaction, sequence (P01116 other isoform, or with tags, fused parts or gaps G12C/C51S/C80L/C118S): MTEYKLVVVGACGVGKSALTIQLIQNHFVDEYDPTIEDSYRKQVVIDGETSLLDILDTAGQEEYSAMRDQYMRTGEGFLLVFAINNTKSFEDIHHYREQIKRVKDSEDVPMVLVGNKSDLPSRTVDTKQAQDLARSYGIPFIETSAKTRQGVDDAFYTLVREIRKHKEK

IC50 [nM]	SMILES
10 to 100	Cc1nccc(/C=C/C(=O)N2CC(CN(C)c3nc(OC[C@@]45CCCN4C[C@H](F)C5)nc4c(F)c(-c5cccc6ccc(F)c(Cl)c56)ncc34)C2)n1 [Example 68, (E)-1-(3-(((7-(8-chloro-7-fluoronaphthalen-1-yl)-8-fluoro-2-(((2R,7aS)-2-fluorotetrahydro-1H-pyrrolizin-7a(5H)-yl)methoxy)pyrido[4,3-d]pyrimidin-4-yl)(methyl)amino)methyl)azetidin-1-yl)-3-(2-methylpyrimidin-4-yl)prop-2-en-1-one]
100 to 500	Cc1nccc(/C=C/C(=O)N2CC(CN(C)c3nc(OC[C@@]45CCCN4C[C@H](F)C5)nc4c3CCN(c3cccc5cccc(Cl)c35)C4)C2)n1 [Example 69, (E)-1-(3-(((7-(8-chloronaphthalen-1-yl)-2-(((2R,7aS)-2-fluorohexahydro-1H-pyrrolizin-7a-yl)methoxy)-5,6,7,8-tetrahydropyrido[3,4-d]pyrimidin-4-yl)(methyl)amino)methyl)azetidin-1-yl)-3-(2-methylpyrimidin-4-yl)prop-2-en-1-one]
10 to 100	CN(CC1CN(C(=O)/C=C/c2ccncn2)C1)c1nc(OC[C@@]23CCCN2C[C@H](F)C3)nc2c1CCN(c1cccc3cccc(Cl)c13)C2 [Example 70, (E)-1-(3-(((7-(8-chloronaphthalen-1-yl)-2-(((2R,7aS)-2-fluorohexahydro-1H-pyrrolizin-7a-yl)methoxy)-5,6,7,8-tetrahydropyrido[3,4-d]pyrimidin-4-yl)(methyl)amino)methyl)azetidin-1-yl)-3-(pyrimidin-4-yl)prop-2-en-1-one]
> 500	Cc1nccc(/C=C/C(=O)N2CC[C@@H](N(C)c3nc(OC[C@@]45CCCN4C[C@H](F)C5)nc4c3CCN(c3cccc5cccc(Cl)c35)C4)C2)n1 [Example 71, (E)-1-((R)-3-((7-(8-chloronaphthalen-1-yl)-2-(((2R,7aS)-2-fluorohexahydro-1H-pyrrolizin-7a-yl)methoxy)-5,6,7,8-tetrahydropyrido[3,4-d]pyrimidin-4-yl)(methyl)amino)pyrrolidin-1-yl)-3-(2-methylpyrimidin-4-yl)prop-2-en-1-one]
100 to 500	Cc1nccc(/C=C/C(=O)N2CC[C@@H](N(C)c3nc(OC[C@@]45CCCN4C[C@H](F)C5)nc4c(F)c(-c5cccc6cccc(Cl)c56)ncc34)C2)n1 [Example 72, (E)-1-((R)-3-((7-(8-chloronaphthalen-1-yl)-8-fluoro-2-(((2R,7aS)-2-fluorotetrahydro-1H-pyrrolizin-7a(5H)-yl)methoxy)pyrido[4,3-d]pyrimidin-4-yl)(methyl)amino)pyrrolidin-1-yl)-3-(2-methylpyrimidin-4-yl)prop-2-en-1-one]
10 to 100	C=CC(=O)N1C[C@H](F)[C@@H](N(C)c2nc(OC[C@@]34CCCN3C[C@H](F)C4)nc3c(F)c(-c4cccc5cccc(Cl)c45)ncc23)C1 [Example 73, 1-((3S,4S)-3-((7-(8-chloronaphthalen-1-yl)-8-fluoro-2-(((2R,7aS)-2-fluorohexahydro-1H-pyrrolizin-7a-yl)methoxy)pyrido[4,3-d]pyrimidin-4-yl)(methyl)amino)-4-fluoropyrrolidin-1-yl)prop-2-en-1-one]
100 to 500	Cc1nsc(/C=C/C(=O)N2CC(CN(C)c3nc(OC[C@@]45CCCN4C[C@H](F)C5)nc4c(F)c(-c5cccc6cccc(Cl)c56)ncc34)C2)n1 [Example 74, (E)-1-(3-(((7-(8-chloronaphthalen-1-yl)-8-fluoro-2-(((2R,7aS)-2-fluorotetrahydro-1H-pyrrolizin-7a(5H)-yl)methoxy)pyrido[4,3-d]pyrimidin-4-yl)(methyl)amino)methyl)azetidin-1-yl)-3-(3-methyl-1,2,4-thiadiazol-5-yl)prop-2-en-1-one]
10 to 100	Cc1nsc(/C=C/C(=O)N2CC[C@@H](N(C)c3nc(OC[C@@]45CCCN4C[C@H](F)C5)nc4c(F)c(-c5cccc6cccc(Cl)c56)ncc34)C2)n1 [Example 75, (E)-1-((R)-3-((7-(8-chloronaphthalen-1-yl)-8-fluoro-2-(((2R,7aS)-2-fluorotetrahydro-1H-pyrrolizin-7a(5H)-yl)methoxy)pyrido[4,3-d]pyrimidin-4-yl)(methyl)amino)pyrrolidin-1-yl)-3-(3-methyl-1,2,4-thiadiazol-5-yl)prop-2-en-1-one]
< 10	C[C@H](F)c1noc(/C=C/C(=O)N2CC(CN(C)c3nc(OC[C@@]45CCCN4C[C@H](F)C5)nc4c(F)c(-c5cccc6cccc(Cl)c56)ncc34)C2)n1 [Example 76, (E)-1-(3-(((7-(8-chloronaphthalen-1-yl)-8-fluoro-2-(((2R,7aS)-2-fluorotetrahydro-1H-pyrrolizin-7a(5H)-yl)methoxy)pyrido[4,3-d]pyrimidin-4-yl)(methyl)amino)methyl)azetidin-1-yl)-3-(3-((S)-1-fluoroethyl)-1,2,4-oxadiazol-5-yl)prop-2-en-1-one]
< 10	C[C@H](F)c1noc(/C=C/C(=O)N2CC[C@@H](N(C)c3nc(OC[C@@]45CCCN4C[C@H](F)C5)nc4c(F)c(-c5cccc6cccc(Cl)c56)ncc34)C2)n1 [Example 77, (E)-1-((R)-3-((7-(8-chloronaphthalen-1-yl)-8-fluoro-2-(((2R,7aS)-2-fluorohexahydro-1H-pyrrolizin-7a-yl)methoxy)pyrido[4,3-d]pyrimidin-4-yl)(methyl)amino)pyrrolidin-1-yl)-3-(3-((S)-1-fluoroethyl)-1,2,4-oxadiazol-5-yl)prop-2-en-1-one]
< 10	CN(CC1CN(C(=O)/C=C/c2nc(C(C)(C)O)no2)C1)c1nc(OC[C@@]23CCCN2C[C@H](F)C3)nc2c(F)c(-c3cccc4ccc(F)c(Cl)c34)ncc12 [Example 78, (E)-1-(3-(((7-(8-chloro-7-fluoronaphthalen-1-yl)-8-fluoro-2-(((2R,7aS)-2-fluorotetrahydro-1H-pyrrolizin-7a(5H)-yl)methoxy)pyrido[4,3-d]pyrimidin-4-yl)(methyl)amino)methyl)azetidin-1-yl)-3-(3-(2-hydroxypropan-2-yl)-1,2,4-oxadiazol-5-yl)prop-2-en-1-one]
10 to 100	CN(CC1CN(C(=O)/C=C/CN2CCOCC2)C1)c1nc(OC[C@@]23CCCN2C[C@H](F)C3)nc2c(F)c(-c3cccc4ccc(F)c(Cl)c34)ncc12 [Example 79, (E)-1-(3-(((7-(8-chloro-7-fluoronaphthalen-1-yl)-8-fluoro-2-(((2R,7aS)-2-fluorotetrahydro-1H-pyrrolizin-7a(5H)-yl)methoxy)pyrido[4,3-d]pyrimidin-4-yl)(methyl)amino)methyl)azetidin-1-yl)-4-morpholinobut-2-en-1-one]
10 to 100	C=CC(=O)N1CC[C@@H](N(C)c2nc(OC[C@]34CCCN3C[C@H](F)C4)nc3c(F)c(-c4cccc5ccc(F)c(Cl)c45)ncc23)C1 [Example 81, 1-((R)-3-((7-(8-chloro-7-fluoronaphthalen-1-yl)-8-fluoro-2-(((2R,7aR)-2-fluorotetrahydro-1H-pyrrolizin-7a(5H)-yl)methoxy)pyrido[4,3-d]pyrimidin-4-yl)(methyl)amino)pyrrolidin-1-yl)prop-2-en-1-one]
< 10	C[C@@H](F)c1noc(/C=C/C(=O)N2CC(CN(C)c3nc(OC[C@@]45CCCN4C[C@H](F)C5)nc4c(F)c(-c5cccc6cccc(Cl)c56)ncc34)C2)n1 [Example 83, (E)-1-(3-(((7-(8-chloronaphthalen-1-yl)-8-fluoro-2-(((2R,7aS)-2-fluorotetrahydro-1H-pyrrolizin-7a(5H)-yl)methoxy)pyrido[4,3-d]pyrimidin-4-yl)(methyl)amino)methyl)azetidin-1-yl)-3-(3-((R)-1-fluoroethyl)-1,2,4-oxadiazol-5-yl)prop-2-en-1-one]
< 10	C[C@@H](F)c1noc(/C=C/C(=O)N2CC[C@@H](N(C)c3nc(OC[C@@]45CCCN4C[C@H](F)C5)nc4c(F)c(-c5cccc6cccc(Cl)c56)ncc34)C2)n1 [Example 84, (E)-1-((R)-3-((7-(8-chloronaphthalen-1-yl)-8-fluoro-2-(((2R,7aS)-2-fluorotetrahydro-1H-pyrrolizin-7a(5H)-yl)methoxy)pyrido[4,3-d]pyrimidin-4-yl)(methyl)amino)pyrrolidin-1-yl)-3-(3-((R)-1-fluoroethyl)-1,2,4-oxadiazol-5-yl)prop-2-en-1-one]
< 10	CC(C)c1noc(/C=C/C(=O)N2CC[C@@H](N(C)c3nc(OCC45CCCN4CCC5)nc4c(F)c(-c5cccc6ccc(F)c(Cl)c56)ncc34)C2)n1 [Example 85, (R,E)-1-(3-((7-(8-chloro-7-fluoronaphthalen-1-yl)-8-fluoro-2-((hexahydro-1H-pyrrolizin-7a-yl)methoxy)pyrido[4,3-d]pyrimidin-4-yl)(methyl)amino)pyrrolidin-1-yl)-3-(3-isopropyl-1,2,4-oxadiazol-5-yl)prop-2-en-1-one]
< 10	Cc1noc(/C=C/C(=O)N2CC(CN(C)c3nc(OC[C@@]45CCCN4C[C@H](F)C5)nc4c(F)c(-c5cc(O)cc6ccccc56)ncc34)C2)n1 [Example 86, (E)-1-(3-(((8-fluoro-2-(((2R,7aS)-2-fluorotetrahydro-1H-pyrrolizin-7a(5H)-yl)methoxy)-7-(3-hydroxynaphthalen-1-yl)pyrido[4,3-d]pyrimidin-4-yl)(methyl)amino)methyl)azetidin-1-yl)-3-(3-methyl-1,2,4-oxadiazol-5-yl)prop-2-en-1-one]

SMILES	IC50 [nM]
C=CC(=O)N1CC[C@@H](N(C)c2nc(OC[C@@]34CCCN3C[C@H](F)C4)nc3c(F)c(-c4cc(OC(F)F)cc5cccc(Cl)c45)ncc23)C1 [Example 82, 1-((R)-3-((7-(8-chloro-3-(difluoromethoxy)naphthalen-1-yl)-8-fluoro-2-(((2R,7aS)-2-fluorotetrahydro-1H-pyrrolizin-7a(5H)-yl)methoxy)pyrido[4,3-d]pyrimidin-4-yl)(methyl)amino)pyrrolidin-1-yl)prop-2-en-1-one]	> 500

From US20250019387A1 (Frontier Medicines Corporation, priority 0001, published 2025)
